Test results from patent publication US8952008B2, “Chemical compounds” (Pfizer Limited, priority 2012, dated 2015).

Columns and labels:
[1] = target: GABRA2-GABRB2-GABRG2 chloride currents in HEK cells (Homo sapiens (Human), UniProt P18507+P47869); assay: QPatch electrophysiological recording, % enhancement of GABA current (α2 PAM); assay type: cell-based; settings: approximately EC10 GABA, −60 mV, whole-cell patch clamp
Description: Human Embryonic Kidney (HEK) cells were transfected with a GABRA2-GABRB2-GABRG2 construct using standard techniques.
For QPatch electrophysiology testing, cells were harvested from flasks by enzymatic dissociation and resuspended in serum-free medium. Cells were typically used for electrophysiological experiments within 24 to 72 hours after splitting.
(§1) Cell suspension containing HEK cells expressing GABRA2-GABRB2-GABRG2 was placed on the QPatch instrument in serum-free medium into the instrument's cell stirrer. The instrument washed the cells once using extracellular buffer and then dispensed them into the QPlate HT measurement plate at a concentration of 3-4-e6/ml. […] All recordings were made at room temperature (22-24° C.).
(§2) Current records were acquired at 1 KHz and filtered at 0.3 KHz using the Bessel filter. Series resistance compensation was set to 80% in the QPatch software.
(§3) All compounds were dissolved in dimethyl sulfoxide to make 30 mM or 10 mM stock solutions, which were then diluted to 1000 times the desired final concentration in dimethyl sulfoxide. These were diluted into extracellular solution to attain the final concentrations desired. […] This concentration of dimethyl sulfoxide was present in all samples.
(§4) Currents were recorded at −60 mV, using an approximately EC10 concentration of gamma-aminobutyric acid (GABA). This dose of gamma-aminobutyric acid was applied for 6 seconds and washed off using extracellular buffer as an unrecorded application using the pipetting system of the QPatch instrument. The same dose of gamma-aminobutyric acid was then applied for 9 seconds, then the test compound was co-applied with this dose of gamma-aminobutyric acid for 15 seconds, and washed off using the extracellular solution using the pipetting system of the QPatch instrument.
(§5) Compound effect (% enhancement of gamma-aminobutyric acid current) was calculated using the following formula: [((peak modulator current amplitude-leak)−(GABA current amplitude-leak))/(GABA current amplitude-leak)]*100, where ‘leak’ is leak current at −60 mV, ‘peak modulator current amplitude’ is the current elicited by co-application of gamma-aminobutyric acid and test compound, and ‘GABA current amplitude’ is the current elicited by application of gamma-aminobutyric acid alone.

[2] = target: GABRA1-GABRB3-GABRG2 chloride currents in HEK cells (Homo sapiens (Human), UniProt P14867+P18507); assay: QPatch electrophysiological recording, % enhancement of GABA current (α1 PAM); assay type: cell-based; settings: approximately EC10 GABA, −60 mV, whole-cell patch clamp
GABRA1-GABRB3-GABRG2 chloride currents in HEK cells, sequence (P14867 28-456): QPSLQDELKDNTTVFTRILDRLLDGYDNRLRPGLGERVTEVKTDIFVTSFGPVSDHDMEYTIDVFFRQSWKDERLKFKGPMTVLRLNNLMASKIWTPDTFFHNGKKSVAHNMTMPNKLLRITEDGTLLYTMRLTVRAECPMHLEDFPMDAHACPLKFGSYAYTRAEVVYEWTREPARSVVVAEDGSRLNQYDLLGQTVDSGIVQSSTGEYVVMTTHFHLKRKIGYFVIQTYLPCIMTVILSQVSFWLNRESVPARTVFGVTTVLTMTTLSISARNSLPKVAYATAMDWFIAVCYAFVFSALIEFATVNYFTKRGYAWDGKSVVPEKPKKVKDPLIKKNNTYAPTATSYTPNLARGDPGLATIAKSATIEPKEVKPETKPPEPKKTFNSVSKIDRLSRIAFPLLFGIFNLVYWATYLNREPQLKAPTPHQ
GABRA1-GABRB3-GABRG2 chloride currents in HEK cells, sequence (P28472 26-473 partner): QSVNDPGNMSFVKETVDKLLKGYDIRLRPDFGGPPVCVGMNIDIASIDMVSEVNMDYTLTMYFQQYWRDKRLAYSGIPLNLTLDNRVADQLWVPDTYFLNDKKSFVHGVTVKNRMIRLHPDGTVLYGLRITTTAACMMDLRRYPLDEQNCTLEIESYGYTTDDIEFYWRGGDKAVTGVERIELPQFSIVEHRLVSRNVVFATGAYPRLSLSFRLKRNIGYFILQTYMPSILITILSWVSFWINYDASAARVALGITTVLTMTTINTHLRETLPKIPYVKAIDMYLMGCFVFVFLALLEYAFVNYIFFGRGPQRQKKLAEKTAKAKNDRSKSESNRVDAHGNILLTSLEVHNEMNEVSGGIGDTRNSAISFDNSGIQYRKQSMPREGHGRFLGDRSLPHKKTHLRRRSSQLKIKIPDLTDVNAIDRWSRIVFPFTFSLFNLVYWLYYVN
GABRA1-GABRB3-GABRG2 chloride currents in HEK cells, sequence (P18507 40-475): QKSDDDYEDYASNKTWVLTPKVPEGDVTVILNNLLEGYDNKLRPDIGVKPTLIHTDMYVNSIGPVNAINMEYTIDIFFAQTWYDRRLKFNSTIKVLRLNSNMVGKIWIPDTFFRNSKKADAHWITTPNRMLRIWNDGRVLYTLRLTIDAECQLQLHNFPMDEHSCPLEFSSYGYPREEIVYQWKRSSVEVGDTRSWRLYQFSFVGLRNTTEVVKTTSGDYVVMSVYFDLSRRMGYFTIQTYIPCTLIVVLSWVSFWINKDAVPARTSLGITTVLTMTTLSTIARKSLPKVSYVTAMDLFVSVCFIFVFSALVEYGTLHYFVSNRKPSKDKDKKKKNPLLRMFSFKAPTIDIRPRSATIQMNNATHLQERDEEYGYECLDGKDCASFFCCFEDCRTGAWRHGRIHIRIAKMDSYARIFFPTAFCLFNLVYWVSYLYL
Description: as §1, §2, §3, §4, §5
The ability of the compounds of the formula (I) to modulate the GABA channels expressing the al subunit (or GABRA1) can also be measured using an assay analogous to that described above but replacing the GABRA2-GABRB2-GABRG2 gene construct with the GABRA1-GABRB3-GABRG2 gene construct. All other conditions remain the same including the same cell line and conditions for cell growth.

[3] = target: human recombinant GABA A receptor containing the alpha2, beta2, and gamma3 subunits (Homo sapiens, UniProt P47869+Q99928); assay: Radioligand competition binding assay with [3H]Ro-15-1788 (Flumazenil);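 also: membranes from HEK cells expressing the receptor, incubated with radioligand to equilibrium, filter-bound radioactivity counted, Ki reported as geometric mean of replicate runs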
Description: Membranes were prepared from HEK cells expressing hGABA A alpha2beta2-gamma3 receptor, and validated to ascertain protein concentration, receptor expression and to determine the Kd of the flumazenil as well as the Ki of a standard set of compounds before being used to test new compounds.
100 ul of radioligand and 100 ul of membrane in 50 mM Tris-HCl and 0.05% F127 with 1 ul of test compound was incubated for 2 hours to allow the reaction to achieve equilibrium, and then harvested onto filter plates, dried and counted on a TopCount NXT. The data was analysed, and the Ki values were presented as the geometric mean of at least two replicates.

GABRA2-GABRB2-GABRG2 chloride currents in HEK cells, sequence (P47869 29-451): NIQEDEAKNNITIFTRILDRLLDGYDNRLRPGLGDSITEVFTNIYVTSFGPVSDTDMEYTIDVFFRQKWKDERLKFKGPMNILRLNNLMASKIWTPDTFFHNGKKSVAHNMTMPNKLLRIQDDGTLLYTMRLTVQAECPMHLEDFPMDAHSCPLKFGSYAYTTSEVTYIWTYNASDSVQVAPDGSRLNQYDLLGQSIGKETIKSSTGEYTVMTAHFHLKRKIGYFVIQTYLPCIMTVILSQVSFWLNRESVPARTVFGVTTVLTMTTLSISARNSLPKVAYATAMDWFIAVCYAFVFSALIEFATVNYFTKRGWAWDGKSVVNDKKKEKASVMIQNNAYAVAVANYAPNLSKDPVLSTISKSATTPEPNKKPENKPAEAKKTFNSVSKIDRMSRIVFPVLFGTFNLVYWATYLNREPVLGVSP
GABRA2-GABRB2-GABRG2 chloride currents in HEK cells, sequence (P47870 26-512 partner): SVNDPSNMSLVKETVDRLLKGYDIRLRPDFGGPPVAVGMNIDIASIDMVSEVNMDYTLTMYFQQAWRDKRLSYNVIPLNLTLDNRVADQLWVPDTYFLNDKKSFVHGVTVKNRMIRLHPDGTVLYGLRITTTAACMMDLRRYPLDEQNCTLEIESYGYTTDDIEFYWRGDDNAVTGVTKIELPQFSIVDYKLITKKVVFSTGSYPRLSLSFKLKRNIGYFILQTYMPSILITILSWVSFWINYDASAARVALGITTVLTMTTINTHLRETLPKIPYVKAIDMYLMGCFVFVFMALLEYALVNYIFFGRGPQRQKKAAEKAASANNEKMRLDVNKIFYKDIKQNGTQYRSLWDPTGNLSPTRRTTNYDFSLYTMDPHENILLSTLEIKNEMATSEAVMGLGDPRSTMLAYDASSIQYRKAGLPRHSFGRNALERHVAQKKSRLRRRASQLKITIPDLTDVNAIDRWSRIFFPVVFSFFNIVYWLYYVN
GABRA2-GABRB2-GABRG2 chloride currents in HEK cells, sequence (P18507 40-475): as the sequence (P18507 40-475) above

| Structure (SMILES) | α2 PAM (%) [1] [%] | α1 PAM (%) [2] [%] | Ki [3] [nM] |
| --- | --- | --- | --- |
| CCn1cnc2c(-c3ccc(F)c(-c4ccc(S(C)(=O)=O)cc4F)c3)cnnc21 [Example 2, 4-[2′,6-Difluoro-4′-(methylsulfonyl)biphenyl-3-yl]-7-ethyl-7H-imidazo[4,5-c]pyridazine] | 1.69 | −4.67 | 10.9 |
| CCn1cnc2c(-c3ccc(F)c(-c4ccc(S(=O)(=O)CC)cc4C#N)c3)cnnc21 [Example 11, 5′-(7-Ethyl-7H-imidazo[4,5-c]pyridazin-4-yl)-4-(ethylsulfonyl)-2′-fluoro-[1,1′-biphenyl]-2-carbonitrile] | 46.7 | −0.474 | 39.2 |
| CCS(=O)(=O)c1ccc(-c2cc(-c3cnnc4c3ncn4C3CC3)ccc2F)cc1 [Example 19, 7-Cyclopropyl-4-[4′-(ethylsulfonyl)-6-fluorobiphenyl-3-yl]-7H-imidazo[4,5-c]pyridazine] | 84.3 | −6.17 | 31.1 |
| COc1cc(S(C)(=O)=O)ccc1-c1cc(-c2cnnc3c2ncn3C2CC2)ccc1F [Example 24, 7-Cyclopropyl-4-(6-fluoro-2′-methoxy-4′-(methylsulfonyl)-[1,1′-biphenyl]-3-yl)-7H-imidazo[4,5-c]pyridazine] | 55.3 | −0.441 | 37.1 |
| CCS(=O)(=O)c1ccc(-c2cc(-c3cnnc4c3ncn4C3CC3)ccc2F)c(C#N)c1 [Example 25, 5′-(7-Cyclopropyl-7H-imidazo[4,5-c]pyridazin-4-yl)-4-(ethylsulfonyl)-2′-fluoro-[1,1′-biphenyl]-2-carbonitrile] | 23.9 | −5.82 | 170 |
| COc1cc(S(C)(=O)=O)ccc1-c1cc(-c2cnnc3c2ncn3C2CCC2)ccc1F [Example 29, 7-Cyclobutyl-4-(6-fluoro-2′-methoxy-4′-(methylsulfonyl)-[1,1′-biphenyl]-3-yl)-7H-imidazol[4,5-c]pyridazine] | 173 | 69.4 | 101 |
| CCS(=O)(=O)c1ccc(-c2cc(-c3cnnc4c3ncn4C(C)C)ccc2F)c(C#N)c1 [Example 41, 4-(Ethylsulfonyl)-2′-fluoro-5′-(7-isopropyl-7H-imidazo[4,5-c]pyridazin-4-yl)-[1,1′-biphenyl]-2-carbonitrile] | 81.3 | 14.9 | 29.1 |
| COc1cc(S(C)(=O)=O)ccc1-c1cc(-c2cnnc3c2ncn3C2CCCC2)ccc1F [Example 42, 7-Cyclopentyl-4-(6-fluoro-2′-methoxy-4′-(methylsulfonyl)-[1,1′-biphenyl]-3-yl)-7H-imidazo[4,5-c]pyridazine] | 199 | 112 | 91.4 |
| CCn1cnc2c(-c3ccc(O)c(-c4ccc(S(=O)(=O)CC)cc4OC)c3)cnnc21 [Example 48, 5-(7-Ethyl-7H-imidazo[4,5-c]pyridazin-4-yl)-4′-(ethylsulfonyl)-2′-methoxy-[1,1′-biphenyl]-2-ol] | 47.8 | −5.53 | – |

Continued, values first:

| α2 PAM (%) [1] [%] | α1 PAM (%) [2] [%] | Ki [3] [nM] | Structure (SMILES) |
| --- | --- | --- | --- |
| 124 | 1.05 | 31.1 | CCn1cnc2c(-c3ccc(F)c(-c4ccc(S(=O)(=O)C(C)C)cc4)c3)cnnc21 [Example 1, 7-Ethyl-4-[6-fluoro-4′-(propan-2-ylsulfonyl)biphenyl-3-yl]-7H-imidazo[4,5-c]pyridazine] |
| 31.6 | −5.78 | 43.3 | CS(=O)(=O)c1ccc(-c2cc(-c3cnnc4c3ncn4C3CC3)ccc2F)cc1 [Example 21, 7-Cyclopropyl-4-(6-fluoro-4′-(methylsulfonyl)biphenyl-3-yl)-7H-imidazo[4,5-c]pyridazine] |
| 118 | 21.3 | 23.9 | CCS(=O)(=O)c1ccc(-c2cc(-c3cnnc4c3ncn4C(C)C)ccc2F)cc1 [Example 31, 4-[4′-(Ethylsulfonyl)-6-fluorobiphenyl-3-yl]-7-(propan-2-yl)-7H-imidazo[4,5-c]pyridazine] |
| 77.2 | −29.5 | 5.82 | CC(C)n1cnc2c(-c3ccc(F)c(-c4ccc(S(N)(=O)=O)cc4)c3)cnnc21 [Example 32, 2′-Fluoro-5′-(7-isopropyl-7H-imidazo[4,5-c]pyridazin-4-yl)biphenyl-4-sulfonamide] |
| 79.9 | −27.0 | 16.4 | CNS(=O)(=O)c1ccc(-c2cc(-c3cnnc4c3ncn4C(C)C)ccc2F)cc1 [Example 33, 2′-Fluoro-N-methyl-5′-[7-(propan-2-yl)-7H-imidazo[4,5-c]pyridazin-4-yl]biphenyl-4-sulfonamide] |
| 94.7 | 4.99 | 34.5 | CCS(=O)(=O)c1ccc(-c2cc(-c3cnnc4c3ncn4C(C)C)ccc2F)c(F)c1 [Example 34, 4-[4′-(Ethylsulfonyl)-2′,6-difluorobiphenyl-3-yl]-7-(propan-2-yl)-7H-imidazol[4,5-c]pyridazine] |
| 62.5 | 14.6 | 8.56 | COc1cc(S(C)(=O)=O)ccc1-c1cc(-c2cnnc3c2ncn3C(C)C)ccc1F [Example 38, 4-(6-Fluoro-2′-methoxy-4′-(methylsulfonyl)-[1,1′-biphenyl]-3-yl)-7-isopropyl-7H-imidazo[4,5-c]pyridazine] |
